Reference: ChEMBL document CHEMBL1201862, “PubChem BioAssay data set” (2004)
Active and inactive are the calls of the source.

How the values were obtained:
Beta-lactamase [1] = molecular target: Beta-lactamase (Salmonella choleraesuis (strain SC-B67), UniProt Q5J463); assay: Epi-absorbance-based counterscreen for selective VIM-2 inhibitors: dose response biochemical high throughput screening assay to identify inhibitors of TEM-1 serine-beta-lactamase.
Beta-lactamase [2] = molecular target: T1, Beta-lactamase (Pseudomonas aeruginosa, UniProt Q79MP6); assay: IMP-1 metallo-beta-lactamase inhibitors, dose response, selectivity assay for VIM-2 inhibitor project, biochemical, epi-absorbance (AID 1920)
[3] = molecular target: Peroxisome proliferator-activated receptor gamma/Nuclear receptor coactivator 1 (Homo sapiens, UniProt P37231); assay: TR-FRET dose response biochemical High Throughput Screening assay for agonists of the steroid receptor coactivator 1 (SRC-1) recruitment by the peroxisome proliferator-activated receptor gamma (PPAR gamma): non-selective agonists. [Related pubchem assays (depositor defined):AID1300, AID1808, AID504735, AID631]; type: protein assay
[4] = molecular target: Peroxisome proliferator-activated receptor gamma/Nuclear receptor coactivator 3 (Homo sapiens, UniProt P37231); assay: TR-FRET dose response biochemical High Throughput Screening assay for agonists of the steroid receptor coactivator 3 (SRC-3) recruitment by the peroxisome proliferator-activated receptor gamma (PPAR gamma): non-selective agonists. [Related pubchem assays: 1301 (Confirmation screen.), 1048 (Primary screen.)]; type: functional
Beta-lactamase [5] = molecular target: T1, Beta-lactamase; assay: […] counterscreen for selective VIM-2 inhibitors: dose response biochemical high throughput screening assay to identify inhibitors of IMP-1 metallo-beta-lactamase.
[6] = molecular target: Peroxisome proliferator-activated receptor gamma/Nuclear receptor coactivator 2 (Homo sapiens, UniProt P37231); assay: TR-FRET dose response biochemical High Throughput Screening assay for agonists of the steroid receptor coactivator 2 (SRC-2) recruitment by the peroxisome proliferator-activated receptor gamma (PPAR gamma): non-selective agonists. [Related pubchem assays: 1297, 1032 ]; type: functional
[7] = molecular target: FAD-linked sulfhydryl oxidase ALR (Homo sapiens, UniProt P55789); assay: inhibitors of human ALR sulfhydryl oxidase, dose response, biochemical, H2O2 detection, luminescence, cherry-pick (AID 493248)
Protein skinhead-1 = molecular target: T2, Protein skinhead-1 (Caenorhabditis elegans, UniProt P34707); type: functional
T2 sequence (P34707 whole entry): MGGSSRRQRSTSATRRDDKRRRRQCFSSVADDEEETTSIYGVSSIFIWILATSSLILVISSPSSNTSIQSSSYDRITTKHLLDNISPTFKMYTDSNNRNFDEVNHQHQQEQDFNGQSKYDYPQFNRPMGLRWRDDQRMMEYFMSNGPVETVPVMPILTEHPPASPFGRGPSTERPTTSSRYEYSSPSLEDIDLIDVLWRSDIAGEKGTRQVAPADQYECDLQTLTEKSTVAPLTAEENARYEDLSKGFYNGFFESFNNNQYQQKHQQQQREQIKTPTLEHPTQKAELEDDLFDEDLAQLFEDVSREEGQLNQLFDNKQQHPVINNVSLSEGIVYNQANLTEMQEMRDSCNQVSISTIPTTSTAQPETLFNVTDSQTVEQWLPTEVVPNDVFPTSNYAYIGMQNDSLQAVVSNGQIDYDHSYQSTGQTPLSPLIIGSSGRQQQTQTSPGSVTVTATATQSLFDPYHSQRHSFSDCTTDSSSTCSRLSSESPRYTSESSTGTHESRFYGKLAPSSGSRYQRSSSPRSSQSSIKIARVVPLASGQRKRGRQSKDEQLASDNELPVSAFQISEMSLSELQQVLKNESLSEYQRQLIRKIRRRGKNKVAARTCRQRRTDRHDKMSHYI

Estrogen receptor beta [8] = molecular target: T3, Estrogen receptor beta (Homo sapiens, UniProt Q92731);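 note: recombinant ER-beta bound to coactivator SRC1 peptide in presence of estradiol agonist; inhibitors block coactivator peptide binding and lower the FRET signal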
Estrogen receptor beta [9] = molecular target: T3, Estrogen receptor beta; assay: ERβ–SRC-3 coactivator interaction inhibitors, confirmation, orthogonal assay, biochemical, ELISA, streptavidin-HRP readout (AID 1060)
Major prion protein = Major prion protein (Homo sapiens, UniProt P04156); type: functional, cell-based
cells [10] = assay: cells
[11] = molecular target: Protein-tyrosine kinase 2-beta (Homo sapiens, UniProt Q14289);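 note: potency of inhibitors of PYK2 kinase phosphorylation of poly-GT substrate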
[12] = miR-122 activators in hepatoma reporter cells, dose response, cell-based, Huh7 psiCHECK-miR122, Renilla luciferase, cherry-picked (AID 651956); type: functional;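 note: huh7 hepatoma cells stably carrying a psiCHECK-2 miR-122 sensor plasmid; renilla luciferase signal reporting endogenous miR-122 activity after 48 h compound exposure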
[13] = HEK293T cytotoxicity, dose response, cytotoxicity control for miR-122 modulator project, cell-based, inhibitor set, cherry-pick, set 2 (AID 720697); type: functional
cells [14] = type: functional, cell-based
cells [15] = type: functional, cell-based; remark: listed apart in the source
[16] = molecular target: T4, Sentrin-specific protease 8 (Homo sapiens, UniProt Q96LD8); assay: SENP8 protease inhibitors, SAR follow-up, biochemical, luminescence (AID 504501); type: functional
T4 sequence (Q96LD8 whole entry): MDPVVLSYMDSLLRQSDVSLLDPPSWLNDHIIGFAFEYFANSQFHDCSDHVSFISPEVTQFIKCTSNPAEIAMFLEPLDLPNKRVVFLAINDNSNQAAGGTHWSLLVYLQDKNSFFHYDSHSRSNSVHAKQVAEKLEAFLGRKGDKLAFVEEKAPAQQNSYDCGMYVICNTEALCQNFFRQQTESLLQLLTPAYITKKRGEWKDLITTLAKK

Caspase-3 = molecular target: T5, Caspase-3 (Homo sapiens, UniProt P42574); assay: SAR Analysis of small molecule inhibitors of Sentrin-specific proteases (SENPs) using a Caspase-3 Selectivity assay. [Related pubchem assays (depositor defined):AID2540, AID2599, AID434973, AID489001]; type: functional
T5 sequence (P42574 whole entry): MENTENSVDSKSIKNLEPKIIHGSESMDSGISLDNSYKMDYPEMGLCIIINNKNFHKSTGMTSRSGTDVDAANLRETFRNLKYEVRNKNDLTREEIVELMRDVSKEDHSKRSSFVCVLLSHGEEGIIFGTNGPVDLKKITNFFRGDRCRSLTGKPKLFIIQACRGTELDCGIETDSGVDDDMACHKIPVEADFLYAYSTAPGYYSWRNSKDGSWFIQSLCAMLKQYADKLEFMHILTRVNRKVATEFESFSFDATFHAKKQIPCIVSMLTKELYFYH

[17] = molecular target: T6, Sentrin-specific protease 6 (Homo sapiens, UniProt Q9GZR1); assay: SAR Analysis of small molecule inhibitors of Sentrin-specific protease 6 (SENP6) using a Luminescent assay. [Related pubchem assays (depositor defined):AID2582, AID2599]; type: functional
T6 sequence (Q9GZR1 whole entry): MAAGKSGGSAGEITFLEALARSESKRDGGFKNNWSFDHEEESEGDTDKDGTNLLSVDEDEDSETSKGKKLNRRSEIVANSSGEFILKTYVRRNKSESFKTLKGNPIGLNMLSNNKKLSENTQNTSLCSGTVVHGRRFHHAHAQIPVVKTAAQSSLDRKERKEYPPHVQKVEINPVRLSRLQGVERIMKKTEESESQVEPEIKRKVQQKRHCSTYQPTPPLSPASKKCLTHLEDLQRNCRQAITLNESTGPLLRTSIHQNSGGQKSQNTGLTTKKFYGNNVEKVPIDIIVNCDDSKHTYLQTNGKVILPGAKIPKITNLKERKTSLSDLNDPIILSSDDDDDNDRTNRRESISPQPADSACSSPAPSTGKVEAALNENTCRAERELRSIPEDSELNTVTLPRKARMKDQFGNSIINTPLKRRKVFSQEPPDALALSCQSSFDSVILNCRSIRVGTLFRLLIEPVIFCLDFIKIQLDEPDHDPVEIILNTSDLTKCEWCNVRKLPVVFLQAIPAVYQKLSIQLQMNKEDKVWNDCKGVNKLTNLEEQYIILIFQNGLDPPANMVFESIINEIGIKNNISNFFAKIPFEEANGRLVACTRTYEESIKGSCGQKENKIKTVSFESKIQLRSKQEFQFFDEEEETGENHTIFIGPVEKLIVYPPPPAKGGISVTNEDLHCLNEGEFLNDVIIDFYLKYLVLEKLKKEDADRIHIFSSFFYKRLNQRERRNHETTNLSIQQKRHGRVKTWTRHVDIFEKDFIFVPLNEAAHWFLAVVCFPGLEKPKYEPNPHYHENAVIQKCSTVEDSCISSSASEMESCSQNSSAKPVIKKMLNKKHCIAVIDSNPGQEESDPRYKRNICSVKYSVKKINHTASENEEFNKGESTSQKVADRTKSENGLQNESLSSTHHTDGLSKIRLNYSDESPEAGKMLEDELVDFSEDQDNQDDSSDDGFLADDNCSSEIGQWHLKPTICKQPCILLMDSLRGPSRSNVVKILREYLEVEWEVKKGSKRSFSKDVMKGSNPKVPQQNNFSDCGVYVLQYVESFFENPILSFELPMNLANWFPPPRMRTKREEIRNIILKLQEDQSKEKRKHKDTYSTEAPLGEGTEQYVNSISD

Paired box protein Pax-8 = Paired box protein Pax-8 (Homo sapiens, UniProt Q06710); assay: inhibitors of PAX8-driven TPO luciferase reporter, dose response, RMG-I cells, cherry-pick (AID 687027); type: functional, cell-based;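 note: luciferase reporter driven by Pax8 target thyroperoxidase promoter measured by SteadyGlo luminescence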
[18] = non-specific cell cytotoxicity, dose response, cytotoxicity control for PAX8 inhibitor project, plate reader, dry powder samples (AID 743021); type: functional, cell-based
[19] = P. falciparum Dd2 growth inhibitors, dose response, SYBR Green, cherry-picked samples (AID 1159567); type: functional, cell-based
[20] = HepG2 cell cytotoxicity, dose response, cytotoxicity control, cherry-picked samples (AID 1159577); type: functional, cell-based
[21] = NIH:OVCAR-3 ovarian cancer cell cytotoxicity, dose response, PAX8 inhibitor project, plate reader, dry powder samples (AID 743044); type: functional, cell-based
[22] = IGROV1 ovarian cancer cell cytotoxicity, dose response, PAX8 inhibitor project, plate reader, dry powder samples (AID 743043); type: functional, cell-based; conditions: IGROV-1
[23] = molecular target: T7, DNA repair protein RAD52 homolog (Homo sapiens, UniProt P43351); type: functional, biochemical
T7 sequence (P43351 whole entry): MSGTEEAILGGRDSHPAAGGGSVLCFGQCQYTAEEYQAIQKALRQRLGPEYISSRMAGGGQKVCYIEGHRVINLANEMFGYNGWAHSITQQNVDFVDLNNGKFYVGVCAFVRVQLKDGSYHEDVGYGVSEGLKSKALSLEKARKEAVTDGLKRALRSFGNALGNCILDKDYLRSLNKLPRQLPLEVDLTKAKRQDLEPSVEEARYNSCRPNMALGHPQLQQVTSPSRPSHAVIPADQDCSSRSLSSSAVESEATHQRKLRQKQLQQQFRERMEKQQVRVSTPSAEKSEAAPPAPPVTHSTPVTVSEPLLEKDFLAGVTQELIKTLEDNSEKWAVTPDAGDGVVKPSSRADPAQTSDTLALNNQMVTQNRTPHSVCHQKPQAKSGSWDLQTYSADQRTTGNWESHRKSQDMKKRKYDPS

[24] = human group III sPLA2 inhibitors, dose response, biochemical, QFRET, IC50 (AID 743457);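 note: green fluorescence rise as the enzyme cleaves BODIPY PC-A2 in liposomes; potency for inhibition of the enzyme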
[25] = T. cruzi growth inhibition in host cells, dose response, cell-based, plate reader, dry powder, set 2 (AID 652275); type: functional
[26] = HEK293 cell cytotoxicity, dose response, cytotoxicity control, cherry-picks, set 5 (AID 1053117); type: functional, cell-based

Cc1c(Cl)c(-c2nnc(S)n2-c2ccc(F)cc2)nn1C
IC50 (Beta-lactamase [1]): > 59.6 µM (inactive)
IC50 (Beta-lactamase [2]): > 59.6 µM (inactive)
EC50 [3]: > 79.4 µM (inactive)
EC50 [4]: > 79.4 µM (not active)
IC50 (Beta-lactamase [5]): > 59.6 µM (inactive)
EC50 [6]: > 79.4 µM (not active)
AC50 [7]: 5.12 µM (active)
IC50 (Protein skinhead-1): > 100 µM (inactive)

CCC(Sc1ncnc2sc(C)c(C)c12)C(=O)OC (stereo unspecified)
IC50 (Estrogen receptor beta [8]): 14.1 µM (active)
IC50 (Estrogen receptor beta [9]): < 0.023 µM (not active)
IC50 (Major prion protein): 2.46 µM (active)
IC50 (cells [10]): > 138 µM (inactive)

COC(=O)CSc1nc(C(C)C)nc2ccccc12
IC50 [11]: > 69.5 µM (not active)
IC50 (Major prion protein): 0.91 µM (active)
IC50 (cells [10]): > 138 µM (inactive)

CN(C)C(=O)c1ccc(NC(=O)c2cc(-n3cnnc3)ccc2Cl)cc1
AC50 [12]: 1.1 µM (active)
AC50 [13]: 1.88 µM (active)

O=C(NCCS(=O)(=O)NCCc1ccccc1)c1ccc2c(c1)OCO2
IC50 (cells [14]): > 29.9 µM (inactive)
EC50 (cells [15]): > 29.9 µM (inactive)

O=C(Nc1ccccc1F)c1ccc(OCc2ccccc2)cc1
IC50 [16]: > 99 µM (inactive)
IC50 (Caspase-3): 10.3 µM (active)
IC50 [17]: > 99 µM (inactive)
IC50 (cells [14]): > 29.9 µM (inactive)
EC50 (cells [15]): > 29.9 µM (inactive)

NC(=O)c1csc(-c2ccncc2)n1
AC50 [13]: 8.85 µM (active)

COc1ccc(-c2ccc([C@@H]3[C@@H](CO)N4CCCCN(C(=O)Cc5ccccc5)C[C@H]34)cc2)cc1
AC50 (Paired box protein Pax-8): 41.5 µM (active)
AC50 [18]: 40.8 µM (active)
AC50 [19]: 6.32 µM (active)
AC50 [20]: > 39 µM (inactive)

O=C1CN(S(=O)(=O)Cc2ccccc2)C[C@@H]2[C@H](c3ccc(C#Cc4ccc(F)cc4)cc3)[C@H](CO)N12
AC50 (Paired box protein Pax-8): 9.68 µM (active)
AC50 [21]: 31 µM (active)
AC50 [22]: 52.7 µM (active)

N=C(N)/N=N/C(=N\Nc1ccccc1)c1ccc(Cl)cc1
AC50 [23]: 12.7 µM (active)
IC50 [24]: > 122 µM (inactive)

CN(C)C(=O)c1cccc(-c2ccc([C@H]3[C@H](CO)N4CCCCN(C(=O)C5CCCC5)C[C@@H]34)cc2)c1
AC50 [25]: 0.065 µM (active)

CO[C@H]1CN(C)C(=O)c2cc(NC(=O)Nc3ccc(Cl)c(Cl)c3)ccc2OC[C@@H](C)NC[C@H]1C
AC50 [26]: > 52 µM (inactive)
